The test system of one data set is E. coli ATCC25922. Particulars: for antimicrobial activity (in words): E. coli and S. aureus, compared to Peptoid 1, parent peptoid or TFA salt as stated. As for the experimental part: (§1) To measure the antimicrobial activity of the peptoids synthesized in Example 1, an E. coli ATCC25922 strain as gram-negative bacteria and an S. aureus KCTC25923 strain as gram-positive bacteris, were treated with the peptoids, followed by measuring the minimum inhibitory concentration (MIC). Peptoids 1 and 2 are antimicrobial peptoids known in the art, and used as controls for comparing antimicrobial activity with a novel peptoid.
(§2) Specifically, the S. aureus KCTC25923 or E. coli ATCC25922 strain was inoculated into a Mueller Hinton Broth (MHB2) liquid medium in which cations had been adjusted in the medium, cultured at 37° C. for 18 hours, subcultured, and then incubated for 4 hours. Afterward, for each bacterial strain, an optical density (OD, 0.001) was adjusted so that the bacterial count became 2×10^5 to 5×10^5 colony-forming units (CFU) per mL, which was then diluted with a MHB2 liquid medium containing 0.02% bovine serum albumin and 0.001% acetic acid, and dispensed at 100 μL into a 96-well microplate. Using sterile water, a peptoid stock 40 times stronger than a concentration to be tested was subjected to two-fold serial dilution and assessed at six different concentrations, and the maximum value of the peptoid concentrations was 25 μM. Subsequently, the plate was incubated at 37° C. for 24 hours. Afterward, optical density (OD) values at 600 nm were measured using a microplate reader (Bio-Rad).
(§3) Each MIC value was determined as the average value of a value obtained through three independent experiments.
(§4) Referring to Table 22, to measure the antimicrobial activity of the peptoids synthesized in Example 3, an MIC was measured by treating gram-negative bacteria, that is, the E. coli ATCC25922 strain, and gram-positive bacteria, that is, the S. aureus ATCC25923 strain, with the peptoids. Here, Peptoid 1 is a conventionally known antimicrobial peptoid, and Omiganan is a derivative of indolicidin, which is an antimicrobial peptide, under clinical development, and was used as a control for comparing antimicrobial activity with the novel peptoid.

A further data set deals with S. aureus ATCC 25923. As for the experimental part: as §1, §2, §3, §4
The next data set relates to red blood cells. As to the kind of experiment: Hemolysis assay. Type of data set: cell-based, Sprague-Dawley mouse. As for the experimental part:
To confirm cytotoxicity by the hemolytic activity of each peptoid synthesized in Example 1, hemolysis analysis was performed. The used blood was collected from a 13-week-old male Sprague-Dawley […] in a tube containing 158 UPS sodium heparin for preventing coagulation, and centrifuged at 4° C. for 10 minutes at 1,000 rpm. Afterward, the plasma was carefully removed, red blood cells were washed with phosphate-buffered saline (PBS: a mixed solution of 35 mM phosphate-buffered solution/150 mM NaCl, pH 7.4) three times and centrifuged at 1,000 rpm for 10 minutes. A 10% (v/v) red blood cell solution diluted in PBS was dispensed at 150 μL into a 96-well plate (microtiter plate), a peptoid solution was added at 50 μL, and 1% Triton X-100 was added. Afterward, the red blood cells were incubated at 37° C. for 1 hour, and the incubated 96-well plate was centrifuged at 1,000 rpm for 15 minutes. A supernatant was obtained and transferred to a new 96-well plate at 150 μL, and absorbance was measured using a spectrophotometer at 540 nm. Percent hemolysis may be calculated by the following Equation 1, and the corresponding results are shown in Tables 11 to 13. % Hemolysis=(A−C)/(B−C)×100 [Equation 1] In Equation 1, A is the absorbance of the peptoid solution at 540 nm, B is the absorbance of the 0.1% Triton X-100 at 540 nm, and C is the absorbance of the PBS solution at 540 nm.

Where [1] appears, read: Tables 11-13, 24 hours at 37° C., maximum concentration 25 μM.

From patent US20240226228A1, “ANTIMICROBIAL PEPTOID HAVING IMPROVED SELECTIVITY AND ANTIMICROBIAL COMPOSITION COMPRISING SAME” (priority 2021, published 2024) come the findings set out here.

SMILES strings stand for the structures. In brackets after ≈: the same amount, converted by molar mass. Read-outs that look alike come from different tables or passages of the source. *1 amine or outer side, *2 acyl side, *3 side chain or, on linkers, in order; H or OH if unused. Where a SMILES comes first, the peptide text is derived from it. [ ]: non-standard residue; d: D form. Gly(N(CH2)2(3-indolyl)) = O=C(O)CNCCc1c[nH]c2ccccc12; Gly(N-CH2CH2-imidazol-4-yl) = O=C(O)CNCCc1c[nH]cn1; Nspe = C[C@H](NCC(=O)O)c1ccccc1; X1 = O=C(CN(CCCCO)[*:1])[*:2]; Nlys = NCCCCNCC(=O)O A value given as a limit tells only on which side of the number the result lay.

Take `C[C@@H](c1ccccc1)N(CC(=O)N(CCCCN)CC(=O)N(CC(=O)N(CC(=O)N(CCCCN)CC(=O)N(CCCCN)CC(=O)N(CCc1c[nH]cn1)CC(N)=O)[C@@H](C)c1ccccc1)[C@@H](C)c1ccccc1)C(=O)CN(C(=O)CN(CCCCN)C(=O)CN(CCc1c[nH]c2ccccc12)C(=O)CN(CCc1c[nH]c2ccccc12)C(=O)CNCCCCN)[C@@H](C)c1ccccc1` [Peptoid 71] (H-[Nlys][Gly(N(CH2)2(3-indolyl))][Gly(N(CH2)2(3-indolyl))][Nlys][Nspe][Nspe][Nlys][Nspe][Nspe][Nlys][Nlys][Gly(N-CH2CH2-imidazol-4-yl)]-NH2): the “MIC E. coli ATCC25922” value with E. coli ATCC25922 (ATCC25922) is over 25 µM. Also, the “MIC S. aureus ATCC 25923” value with S. aureus ATCC 25923 (ATCC 25923) was over 25 µM.
Usually HC50 stands for the concentration that lyses half of the red blood cells. Lower therefore signals stronger haemolysis. As to `C[C@@H](c1ccccc1)N(CC(N)=O)C(=O)CN(CCCCN)C(=O)CN(C(=O)CN(C(=O)CN(CCCCN)C(=O)CN(C(=O)CN(C(=O)CN(CCCCN)C(=O)CN(C(=O)CN(CCCCN)C(=O)CNCCCCN)[C@@H](C)c1ccccc1)[C@@H](C)c1ccccc1)[C@@H](C)c1ccccc1)[C@@H](C)c1ccccc1)[C@@H](C)c1ccccc1` [Peptoid 49], the “MIC S. aureus ATCC 25923” value with S. aureus ATCC 25923 (setting [1]) was over 25 µM. Moreover, in the data set on red blood cells, the HC10 was >100/>100 μM, the HC50 is reported as >100/>100 μM and the “Hmax (100 μM)” value was 0.3 ± 0.3%.
`C[C@@H](c1ccccc1)N(CC(N)=O)C(=O)CN(CCCCN)C(=O)CN(CCCCN)C(=O)CN(C(=O)CN(C(=O)CN(CCCCN)C(=O)CN(CCc1c[nH]cn1)C(=O)CN(C(=O)CN(CCCCN)C(=O)CN(CCc1c[nH]c2ccccc12)C(=O)CN(CCc1c[nH]c2ccccc12)C(=O)CNCCCCN)[C@@H](C)c1ccccc1)[C@@H](C)c1ccccc1)[C@@H](C)c1ccccc1` [Peptoid 68] (H-[Nlys][Gly(N(CH2)2(3-indolyl))][Gly(N(CH2)2(3-indolyl))][Nlys][Nspe][Gly(N-CH2CH2-imidazol-4-yl)][Nlys][Nspe][Nspe][Nlys][Nlys][Nspe]-NH2): the “MIC E. coli ATCC25922” value in the data set on E. coli ATCC25922 (ATCC25922) is over 25 µM. In the data set with S. aureus ATCC 25923 (ATCC 25923), the “MIC S. aureus ATCC 25923” value came out at 25 µM (≈ 46.4 µg/mL).
In the case of `NC(=O)CN(CCc1c[nH]c2ccccc12)C(=O)CN(CCc1c[nH]c2ccccc12)C(=O)CN(CCCCO)C(=O)CN(CCc1c[nH]c2ccccc12)C(=O)CN(CCc1c[nH]c2ccccc12)C(=O)CN(CCCCO)C(=O)CN(CCc1c[nH]c2ccccc12)C(=O)CN(CCc1c[nH]c2ccccc12)C(=O)CN(CCCCO)C(=O)CN(CCc1c[nH]c2ccccc12)C(=O)CN(CCc1c[nH]c2ccccc12)C(=O)CNCCCCO` [Peptoid 65] (H-[X1][Gly(N(CH2)2(3-indolyl))][Gly(N(CH2)2(3-indolyl))][X1][Gly(N(CH2)2(3-indolyl))][Gly(N(CH2)2(3-indolyl))][X1][Gly(N(CH2)2(3-indolyl))][Gly(N(CH2)2(3-indolyl))][X1][Gly(N(CH2)2(3-indolyl))][Gly(N(CH2)2(3-indolyl))]-NH2), the “MIC E. coli ATCC25922” value against E. coli ATCC25922 (setting [1]) is over 25 µM. Also, in the data set on S. aureus ATCC 25923 (setting [1]), the “MIC S. aureus ATCC 25923” value was over 25 µM.
Consider `C[C@@H](c1ccccc1)N(CC(=O)N(CCCCN)CC(=O)N(CCc1c[nH]c2ccccc12)CC(=O)N(CCc1c[nH]c2ccccc12)CC(N)=O)C(=O)CN(CCCCN)C(=O)CN(CCc1c[nH]cn1)C(=O)CN(C(=O)CN(C(=O)CN(CCCCN)C(=O)CN(C(=O)CN(C(=O)CNCCCCN)[C@@H](C)c1ccccc1)[C@@H](C)c1ccccc1)[C@@H](C)c1ccccc1)[C@@H](C)c1ccccc1` [Peptoid 79, H-NLys-Nspe-Nspe-NLys-Nspe-Nspe-NHis-NLys-Nspe-NLys-NhTrp-NhTrp-NH2] (H-[Nlys][Nspe][Nspe][Nlys][Nspe][Nspe][Gly(N-CH2CH2-imidazol-4-yl)][Nlys][Nspe][Nlys][Gly(N(CH2)2(3-indolyl))][Gly(N(CH2)2(3-indolyl))]-NH2), for which, in the data set with E. coli ATCC25922, the “antimicrobial activity (in words)” value is “retained antimicrobial activity”. Further, the “cytotoxicity against red blood cells / hemolysis (in words)” value in the data set with red blood cells was “improved in toxicity”.
Consider `C[C@@H](c1ccccc1)N(CC(N)=O)C(=O)CN(CCCCN)C(=O)CN(CCCCN)C(=O)CN(C(=O)CN(C(=O)CN(CCCCN)C(=O)CN(C(=O)CN(C(=O)CN(CCc1c[nH]cn1)C(=O)CN(CCc1c[nH]c2ccccc12)C(=O)CN(CCc1c[nH]c2ccccc12)C(=O)CNCCCCN)[C@@H](C)c1ccccc1)[C@@H](C)c1ccccc1)[C@@H](C)c1ccccc1)[C@@H](C)c1ccccc1` [Peptoid 73, H-NLys-NhTrp-NhTrp-NHis-Nspe-Nspe-NLys-Nspe-Nspe-NLys-NLys-Nspe-NH2] (H-[Nlys][Gly(N(CH2)2(3-indolyl))][Gly(N(CH2)2(3-indolyl))][Gly(N-CH2CH2-imidazol-4-yl)][Nspe][Nspe][Nlys][Nspe][Nspe][Nlys][Nlys][Nspe]-NH2), for which the “antimicrobial activity (in words)” value in the data set on E. coli ATCC25922 is given as “retained antimicrobial activity”. For the same compound, the “cytotoxicity against red blood cells / hemolysis (in words)” value in the data set with red blood cells was “improved in toxicity”.
As to `C[C@@H](c1ccccc1)N(CC(=O)N(CCCCN)CC(=O)N(CCc1c[nH]c2ccccc12)CC(=O)N(CCc1c[nH]c2ccccc12)CC(N)=O)C(=O)CN(CCc1c[nH]cn1)C(=O)CN(CCCCN)C(=O)CN(C(=O)CN(C(=O)CN(CCCCN)C(=O)CN(C(=O)CN(C(=O)CNCCCCN)[C@@H](C)c1ccccc1)[C@@H](C)c1ccccc1)[C@@H](C)c1ccccc1)[C@@H](C)c1ccccc1` [Peptoid 78, H-NLys-Nspe-Nspe-NLys-Nspe-Nspe-NLys-NHis-Nspe-NLys-NhTrp-NhTrp-NH2] (H-[Nlys][Nspe][Nspe][Nlys][Nspe][Nspe][Nlys][Gly(N-CH2CH2-imidazol-4-yl)][Nspe][Nlys][Gly(N(CH2)2(3-indolyl))][Gly(N(CH2)2(3-indolyl))]-NH2), the “antimicrobial activity (in words)” value in the data set on E. coli ATCC25922 is given as “retained antimicrobial activity”. In addition, in the data set on red blood cells, the “cytotoxicity against red blood cells / hemolysis (in words)” value was “improved in toxicity”.
On to `C[C@@H](c1ccccc1)N(CC(=O)N(CCCCN)CC(=O)N(CC(=O)N(CC(=O)N(CCCCN)CC(=O)N(CCc1c[nH]c2ccccc12)CC(=O)N(CCc1c[nH]c2ccccc12)CC(=O)N(CCCCN)CC(=O)N(CCc1c[nH]c2ccccc12)CC(=O)N(CCc1c[nH]c2ccccc12)CC(N)=O)[C@@H](C)c1ccccc1)[C@@H](C)c1ccccc1)C(=O)CN(C(=O)CNCCCCN)[C@@H](C)c1ccccc1` [Peptoid 19] (H-[Nlys][Nspe][Nspe][Nlys][Nspe][Nspe][Nlys][Gly(N(CH2)2(3-indolyl))][Gly(N(CH2)2(3-indolyl))][Nlys][Gly(N(CH2)2(3-indolyl))][Gly(N(CH2)2(3-indolyl))]-NH2), for which, in the data set on E. coli ATCC25922 (setting [1]), the “MIC E. coli ATCC25922” value was found to be 12.5 µM (≈ 24.7 µg/mL). Moreover, in the data set on red blood cells, the “Hmax (100 μM)” value is 101.5 ± 1.3%. In the data set with red blood cells (Tables 11-13, concentration that induces hemolysis in 10% red blood cells), this compound had an HC10 of 3.8 µM. The same compound came in with an HC50 with red blood cells (Tables 11-13, concentration that induces hemolysis in 50% red blood cells) of 12.5 µM.
Take `C[C@@H](c1ccccc1)N(CC(N)=O)C(=O)CN(CCCCN)C(=O)CN(CCCCN)C(=O)CN(C(=O)CN(C(=O)CN(CCCCN)C(=O)CN(C(=O)CN(C(=O)CN(CCCCN)C(=O)CN(CCc1c[nH]c2ccccc12)C(=O)CN(CCc1c[nH]c2ccccc12)C(=O)CNCCc1c[nH]cn1)[C@@H](C)c1ccccc1)[C@@H](C)c1ccccc1)[C@@H](C)c1ccccc1)[C@@H](C)c1ccccc1` [Peptoid 72, H-NHis-NhTrp-NhTrp-NLys-Nspe-Nspe-NLys-Nspe-Nspe-NLys-NLys-Nspe-NH2] (H-[Gly(N-CH2CH2-imidazol-4-yl)][Gly(N(CH2)2(3-indolyl))][Gly(N(CH2)2(3-indolyl))][Nlys][Nspe][Nspe][Nlys][Nspe][Nspe][Nlys][Nlys][Nspe]-NH2): in the data set with E. coli ATCC25922, the “antimicrobial activity (in words)” value is listed as “retained antimicrobial activity”. Further, in the data set with red blood cells, the “cytotoxicity against red blood cells / hemolysis (in words)” value is reported as “improved in toxicity”.
On to `C[C@@H](c1ccccc1)N(CC(=O)N(CCCCN)CC(=O)N(CC(=O)N(CC(=O)N(CCCCN)CC(=O)N(CC(=O)N(CC(=O)N(CCCCN)CC(=O)N(CCCCN)CC(N)=O)[C@@H](C)c1ccccc1)[C@@H](C)c1ccccc1)[C@@H](C)c1ccccc1)[C@@H](C)c1ccccc1)C(=O)CN(C(=O)CNCCCCN)[C@@H](C)c1ccccc1` [Peptoid 52] (H-[Nlys][Nspe][Nspe][Nlys][Nspe][Nspe][Nlys][Nspe][Nspe][Nlys][Nlys]-NH2), for which the “MIC S. aureus ATCC 25923” value in the data set on S. aureus ATCC 25923 (setting [1]) was over 25 µM.
